Measured values as given in ChEMBL document CHEMBL1201862, “PubChem BioAssay data set” (2004).
One block for each compound: values may come before it. Activity calls are given as the source filed them.

Columns and labels:
[1] = test system: P388/ADR; assay: cells; format: functional; conditions: Mus musculus
[2] = test system: SN12K1; assay: cells; format: functional; conditions: Homo sapiens
[3] = test system: P388; assay: cells; format: functional; conditions: Mus musculus
[4] = viability of uninfected HEp-2 cells – cell-based, HTS, cytotoxicity control for RSV inhibitor project, dose response (AID 2410); format: functional; conditions: human respiratory syncytial virus
[5] = target: Luciferin 4-monooxygenase (Photinus pyralis, UniProt P08659); assay: Counter Screen for Luciferase-based Assay Positives. [Related pubchem assays: 620, 618, 411 ]
[6] = test system: HT-1080; assay: HT1080 cell viability loss – fluorescence readout (AID 620); format: functional, cell-based; conditions: Homo sapiens
[7] = target: T1, Caspase-3 (Homo sapiens, UniProt P42574); format: functional
T1 sequence (P42574 whole entry): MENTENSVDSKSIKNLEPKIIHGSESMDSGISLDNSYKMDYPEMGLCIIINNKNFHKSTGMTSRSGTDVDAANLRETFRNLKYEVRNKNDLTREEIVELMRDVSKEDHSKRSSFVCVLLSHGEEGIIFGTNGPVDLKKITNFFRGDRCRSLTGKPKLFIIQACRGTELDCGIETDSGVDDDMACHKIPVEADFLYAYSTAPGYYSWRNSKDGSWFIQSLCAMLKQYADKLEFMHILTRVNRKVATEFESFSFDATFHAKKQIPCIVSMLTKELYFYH

[8] = target: T2, Sentrin-specific protease 7 (Homo sapiens, UniProt Q9BQF6); format: functional;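 note: Luminescence-based dose-response confirmation of ultra-high-throughput screening hits, measuring inhibition of SENP7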
T2 sequence (Q9BQF6 whole entry): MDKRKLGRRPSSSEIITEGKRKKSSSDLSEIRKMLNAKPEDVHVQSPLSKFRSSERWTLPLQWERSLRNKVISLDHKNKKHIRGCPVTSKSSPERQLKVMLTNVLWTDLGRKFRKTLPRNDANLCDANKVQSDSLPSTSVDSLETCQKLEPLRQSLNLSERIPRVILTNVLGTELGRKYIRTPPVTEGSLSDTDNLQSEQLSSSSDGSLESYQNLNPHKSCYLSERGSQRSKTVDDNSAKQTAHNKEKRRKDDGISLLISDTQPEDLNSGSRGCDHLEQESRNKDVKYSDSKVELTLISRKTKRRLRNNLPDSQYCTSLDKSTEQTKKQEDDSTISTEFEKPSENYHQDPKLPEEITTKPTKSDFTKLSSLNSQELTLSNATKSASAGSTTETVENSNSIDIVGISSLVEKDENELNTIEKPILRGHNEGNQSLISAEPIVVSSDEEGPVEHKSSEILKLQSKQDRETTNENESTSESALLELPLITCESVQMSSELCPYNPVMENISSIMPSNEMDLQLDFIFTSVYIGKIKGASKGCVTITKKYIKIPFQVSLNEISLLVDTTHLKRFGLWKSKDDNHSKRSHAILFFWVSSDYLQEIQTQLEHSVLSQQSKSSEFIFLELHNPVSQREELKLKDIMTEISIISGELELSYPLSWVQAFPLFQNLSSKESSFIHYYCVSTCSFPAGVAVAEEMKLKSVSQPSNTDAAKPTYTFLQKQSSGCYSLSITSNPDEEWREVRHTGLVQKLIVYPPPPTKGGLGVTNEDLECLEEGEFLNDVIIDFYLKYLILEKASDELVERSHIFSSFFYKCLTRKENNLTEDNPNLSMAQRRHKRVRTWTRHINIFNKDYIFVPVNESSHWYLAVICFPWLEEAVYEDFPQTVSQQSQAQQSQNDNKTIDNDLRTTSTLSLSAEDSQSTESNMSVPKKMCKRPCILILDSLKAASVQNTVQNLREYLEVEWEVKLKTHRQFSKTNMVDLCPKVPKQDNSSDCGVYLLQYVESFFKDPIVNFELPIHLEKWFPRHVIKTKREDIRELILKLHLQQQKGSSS

[9] = target: T3, Sentrin-specific protease 6 (Homo sapiens, UniProt Q9GZR1); format: functional
T3 sequence (Q9GZR1 whole entry): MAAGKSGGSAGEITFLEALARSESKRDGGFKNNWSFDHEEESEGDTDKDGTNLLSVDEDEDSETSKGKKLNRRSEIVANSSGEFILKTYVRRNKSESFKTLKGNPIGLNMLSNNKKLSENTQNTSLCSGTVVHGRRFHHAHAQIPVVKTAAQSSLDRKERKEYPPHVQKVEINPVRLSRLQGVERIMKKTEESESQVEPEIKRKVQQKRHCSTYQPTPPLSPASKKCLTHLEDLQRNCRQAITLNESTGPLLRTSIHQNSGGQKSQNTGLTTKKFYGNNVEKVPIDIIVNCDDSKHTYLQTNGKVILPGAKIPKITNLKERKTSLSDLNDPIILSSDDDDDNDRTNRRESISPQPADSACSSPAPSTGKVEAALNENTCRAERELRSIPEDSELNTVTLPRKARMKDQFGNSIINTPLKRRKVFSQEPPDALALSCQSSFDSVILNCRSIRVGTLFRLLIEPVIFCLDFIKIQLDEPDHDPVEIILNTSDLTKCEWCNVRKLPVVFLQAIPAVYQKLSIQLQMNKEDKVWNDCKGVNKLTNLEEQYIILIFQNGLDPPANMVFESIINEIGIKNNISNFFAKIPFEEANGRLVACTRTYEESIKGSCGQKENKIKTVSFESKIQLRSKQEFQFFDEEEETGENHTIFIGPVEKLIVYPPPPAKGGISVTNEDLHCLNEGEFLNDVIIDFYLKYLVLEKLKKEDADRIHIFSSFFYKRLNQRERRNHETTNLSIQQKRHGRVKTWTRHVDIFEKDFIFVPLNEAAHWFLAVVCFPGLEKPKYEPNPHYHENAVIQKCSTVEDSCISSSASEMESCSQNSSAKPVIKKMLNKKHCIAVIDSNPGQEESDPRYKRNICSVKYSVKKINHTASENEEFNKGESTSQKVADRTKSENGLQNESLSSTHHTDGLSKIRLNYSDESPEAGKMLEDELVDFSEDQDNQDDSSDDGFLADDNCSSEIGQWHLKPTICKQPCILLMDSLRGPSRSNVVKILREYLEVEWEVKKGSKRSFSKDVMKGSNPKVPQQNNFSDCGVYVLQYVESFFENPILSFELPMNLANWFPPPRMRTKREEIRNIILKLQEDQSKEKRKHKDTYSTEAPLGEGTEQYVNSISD

[10] = target: T4, Sentrin-specific protease 8 (Homo sapiens, UniProt Q96LD8); format: functional;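 note: luminescence read-out of SENP8 inhibition, dose-response confirmation following an ultra-high-throughput screen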
T4 sequence (Q96LD8 whole entry): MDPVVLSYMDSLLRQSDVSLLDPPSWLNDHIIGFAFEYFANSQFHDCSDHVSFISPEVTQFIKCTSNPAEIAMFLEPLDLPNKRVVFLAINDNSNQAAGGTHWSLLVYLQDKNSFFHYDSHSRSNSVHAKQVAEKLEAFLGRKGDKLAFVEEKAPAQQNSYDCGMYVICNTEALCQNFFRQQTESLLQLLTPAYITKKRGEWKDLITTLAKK

[11] = test system: HeLa; assay: ATP-based viability loss in HeLa cells – cell-based, CellTiter-Glo luminescence, cherry-pick samples, cytotoxicity control for MITF activator project, dose response (AID 540259); format: functional; conditions: Homo sapiens
[12] = target: Cytochrome P450 3A4 (Homo sapiens, UniProt P08684);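 note: CYP3A4 tested as one member of a cytochrome P450 panel screen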
[13] = target: Beta-galactosidase (Escherichia coli, UniProt Q8VNN2); assay: PubChem AID 485352; format: functional
[14] = target: T5, Type-1 angiotensin II receptor (Homo sapiens, UniProt P30556); assay: antagonism of angiotensin II type 1 receptor – cell-based, uHTS hits, selectivity assay for APJ receptor antagonist project, dose response (AID 463214); format: functional;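 note: antagonist potency against angiotensin II stimulated AT1 response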
T5 sequence (P30556 whole entry): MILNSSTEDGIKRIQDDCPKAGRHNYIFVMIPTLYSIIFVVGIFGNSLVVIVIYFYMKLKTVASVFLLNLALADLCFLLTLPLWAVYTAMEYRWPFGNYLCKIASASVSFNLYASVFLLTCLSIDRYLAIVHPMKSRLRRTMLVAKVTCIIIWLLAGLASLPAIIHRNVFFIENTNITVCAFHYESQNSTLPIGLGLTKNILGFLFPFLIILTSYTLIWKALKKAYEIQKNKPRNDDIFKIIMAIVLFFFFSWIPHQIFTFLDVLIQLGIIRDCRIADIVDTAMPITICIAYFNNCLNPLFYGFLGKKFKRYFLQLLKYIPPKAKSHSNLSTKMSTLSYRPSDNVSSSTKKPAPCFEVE

[15] = target: Beta-2 adrenergic receptor (Homo sapiens, UniProt P07550); assay: ADRB2 activation measured by internalization – cell-based, FAP fluorogen, flow cytometry, cherry pick 1, dose response (AID 588763); format: functional
[16] = test system: Streptococcus sp. 'group A'; assay: Streptococcus pyogenes SK(-)GAS viability under kanamycin – luminescence, BacTiterGlo, confirmation, counter-screen for streptokinase expression inhibitor project, dose response (AID 1900); format: functional, organism-based
[17] = test system: Streptococcus; assay: GAS UMAA2166 growth inhibition – luminescence, BacTiterGlo, counter-screen for streptokinase expression inhibitor project, dose response (AID 1915); format: functional, organism-based;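 note: potency for reduction of bacterial viability or growth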
[18] = blockers of HIV-1 envelope-mediated cell-cell fusion – cherry-pick, dose response (AID 652057); format: functional, cell-based
[19] = blockers of HIV-1 ZM109 envelope-driven cell-cell fusion – HeLa effector, CEM target cells, luciferase, cherry-pick, dose response (AID 652058); format: functional, cell-based;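 note: luciferase signal from HIV-1 Env mediated cell-cell fusion of effector and target cells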
[20] = off-target signal loss in HeLa-CEM21 co-culture – HeLa F-luc CTL cells, cherry-picked, counter-screen for HIV-1 Env fusion inhibitor project, dose response (AID 652040); format: functional, cell-based;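 note: potency for signal decrease marking cytotoxic or nonspecific inhibition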
[21] = target: T4, Sentrin-specific protease 8; assay: inhibition of human SENP8 cleavage activity – biochemical, luminescence, SAR follow-up (AID 504501); format: functional
[22] = target: T1, Caspase-3; assay: SAR Analysis of small molecule inhibitors of Sentrin-specific proteases (SENPs) using a Caspase-3 Selectivity assay. [Related pubchem assays (depositor defined):AID2540, AID2599, AID434973, AID489001]; format: functional
[23] = target: T3, Sentrin-specific protease 6; assay: SAR Analysis of small molecule inhibitors of Sentrin-specific protease 6 (SENP6) using a Luminescent assay. [Related pubchem assays (depositor defined):AID2582, AID2599]; format: functional
[24] = target: T2, Sentrin-specific protease 7; assay: inhibition of human SENP7 cleavage activity – biochemical, luminescence, SAR follow-up (AID 504497); format: functional

Chain of Beta-galactosidase (Q8VNN2 whole entry): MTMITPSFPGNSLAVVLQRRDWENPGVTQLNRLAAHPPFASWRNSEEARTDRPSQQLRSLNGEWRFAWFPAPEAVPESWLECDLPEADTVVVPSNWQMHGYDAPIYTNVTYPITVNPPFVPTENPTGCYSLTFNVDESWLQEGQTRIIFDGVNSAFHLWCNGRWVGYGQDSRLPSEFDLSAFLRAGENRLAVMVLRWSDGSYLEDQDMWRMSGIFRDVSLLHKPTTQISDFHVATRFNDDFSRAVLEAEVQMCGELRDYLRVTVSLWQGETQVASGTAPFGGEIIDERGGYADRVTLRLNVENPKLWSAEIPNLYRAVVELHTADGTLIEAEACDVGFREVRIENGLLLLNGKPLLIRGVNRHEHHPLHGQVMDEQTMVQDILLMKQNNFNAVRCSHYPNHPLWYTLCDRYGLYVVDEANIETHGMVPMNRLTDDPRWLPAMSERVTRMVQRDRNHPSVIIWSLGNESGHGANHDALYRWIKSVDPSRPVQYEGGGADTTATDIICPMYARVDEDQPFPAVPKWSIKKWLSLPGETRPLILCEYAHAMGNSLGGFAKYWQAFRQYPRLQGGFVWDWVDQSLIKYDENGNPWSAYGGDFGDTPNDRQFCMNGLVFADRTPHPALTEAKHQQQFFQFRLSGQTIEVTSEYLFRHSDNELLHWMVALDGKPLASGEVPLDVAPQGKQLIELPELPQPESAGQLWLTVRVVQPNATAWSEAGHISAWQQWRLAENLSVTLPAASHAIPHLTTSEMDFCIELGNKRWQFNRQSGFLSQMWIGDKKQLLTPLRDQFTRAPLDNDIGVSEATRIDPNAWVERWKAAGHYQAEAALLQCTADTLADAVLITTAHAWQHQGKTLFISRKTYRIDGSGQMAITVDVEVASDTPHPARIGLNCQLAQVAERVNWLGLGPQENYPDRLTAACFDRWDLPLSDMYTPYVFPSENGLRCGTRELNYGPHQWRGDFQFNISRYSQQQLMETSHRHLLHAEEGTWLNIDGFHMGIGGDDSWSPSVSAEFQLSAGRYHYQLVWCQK
Chain of Beta-2 adrenergic receptor (P07550 whole entry): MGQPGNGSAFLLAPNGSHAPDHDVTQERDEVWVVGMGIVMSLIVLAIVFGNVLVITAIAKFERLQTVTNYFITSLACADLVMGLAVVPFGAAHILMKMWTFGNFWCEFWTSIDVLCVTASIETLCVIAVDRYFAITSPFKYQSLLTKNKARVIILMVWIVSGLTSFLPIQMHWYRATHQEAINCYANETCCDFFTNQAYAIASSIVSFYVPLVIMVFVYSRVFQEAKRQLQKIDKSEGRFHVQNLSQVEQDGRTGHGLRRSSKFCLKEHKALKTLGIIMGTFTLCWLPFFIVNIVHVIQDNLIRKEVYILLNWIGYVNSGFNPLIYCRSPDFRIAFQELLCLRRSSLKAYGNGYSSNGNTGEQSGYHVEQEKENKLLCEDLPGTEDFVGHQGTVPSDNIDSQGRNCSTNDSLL
Chain of Cytochrome P450 3A4 (P08684 whole entry): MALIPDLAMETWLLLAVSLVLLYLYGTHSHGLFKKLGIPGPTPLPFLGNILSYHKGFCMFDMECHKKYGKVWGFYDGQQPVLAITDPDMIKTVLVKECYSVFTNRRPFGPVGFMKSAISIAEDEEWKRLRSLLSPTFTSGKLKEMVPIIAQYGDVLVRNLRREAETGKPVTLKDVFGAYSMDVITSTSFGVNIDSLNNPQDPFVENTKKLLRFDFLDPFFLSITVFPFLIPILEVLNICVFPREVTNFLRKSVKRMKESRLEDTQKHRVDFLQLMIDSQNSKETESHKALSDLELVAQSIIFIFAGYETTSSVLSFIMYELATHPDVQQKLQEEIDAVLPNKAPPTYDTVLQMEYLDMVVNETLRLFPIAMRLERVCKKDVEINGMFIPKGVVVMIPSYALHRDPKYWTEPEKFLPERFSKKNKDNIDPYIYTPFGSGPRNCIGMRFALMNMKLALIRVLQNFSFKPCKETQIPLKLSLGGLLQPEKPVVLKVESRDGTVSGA
Chain of Luciferin 4-monooxygenase (P08659 whole entry): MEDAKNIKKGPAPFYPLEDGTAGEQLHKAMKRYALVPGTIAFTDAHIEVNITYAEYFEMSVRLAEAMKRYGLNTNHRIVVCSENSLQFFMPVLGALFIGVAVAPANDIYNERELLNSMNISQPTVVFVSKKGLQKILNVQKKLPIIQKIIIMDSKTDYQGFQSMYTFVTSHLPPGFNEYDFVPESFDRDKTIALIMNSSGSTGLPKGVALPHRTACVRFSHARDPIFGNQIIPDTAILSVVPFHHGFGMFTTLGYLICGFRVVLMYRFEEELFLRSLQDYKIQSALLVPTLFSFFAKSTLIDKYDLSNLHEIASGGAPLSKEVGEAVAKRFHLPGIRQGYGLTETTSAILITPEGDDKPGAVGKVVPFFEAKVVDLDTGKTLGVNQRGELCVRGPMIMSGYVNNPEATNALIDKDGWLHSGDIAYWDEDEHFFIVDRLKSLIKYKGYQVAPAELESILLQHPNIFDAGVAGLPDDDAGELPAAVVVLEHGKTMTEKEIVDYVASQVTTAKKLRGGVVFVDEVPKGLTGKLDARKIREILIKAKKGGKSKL

- EC50 [13]: > 40 µM (inactive)
- IC50 [14]: 29.4 µM (not active)
SMILES: O=C1N=c2ccc(Br)cc2=C1Nc1ccc(-c2nnc3n2CCCCC3)cc1

- EC50 [15]: 1.22 µM (active)
SMILES: c1ccc(CSc2nnnn2-c2cccc3ccccc23)nc1

- EC50 [13]: > 40 µM (inactive)
- IC50 [14]: 7.76 µM (active)
SMILES: Cc1ccc(N=C2C(=O)Nc3ccc(Br)cc32)cc1

- EC50 [15]: 0.0108 µM (active)
SMILES: COc1ccc([C@H](C)NC[C@H](O)c2ccc(O)c(NC=O)c2)cc1

- IC50 [22]: > 99 µM (inactive)
- IC50 [23]: > 99 µM (inactive)
- IC50 [24]: > 99 µM (inactive)
SMILES: COc1cc(NC(=O)Nc2ccc(F)cc2)cc2sc(NC(=O)c3ccccc3)nc12
- IC50 [21]: > 99 µM (inactive)

- IC50 [22]: > 99 µM (inactive)
- IC50 [23]: > 99 µM (inactive)
- IC50 [24]: > 99 µM (inactive)
SMILES: C(=N\Nc1ccccc1)/c1cn(Cc2ccccc2)c2ccccc12
- IC50 [21]: > 99 µM (inactive)

- IC50 [22]: > 99 µM (inactive)
- IC50 [23]: > 99 µM (inactive)
- IC50 [24]: > 99 µM (inactive)
SMILES: CCc1ccc(-c2nc(/C=C/c3ccc(F)cc3)no2)cc1
- IC50 [21]: > 99 µM (inactive)

The remaining lines, values behind:

SMILES: CCCSc1nc(COC(=O)NC)c(COC(=O)NC)n1C
- GI50 [1]: 23.8 µM (inactive)
- GI50 [2]: > 100 µM (inactive)
- GI50 [3]: 21.1 µM (inactive)

SMILES: CCCC(=O)Nc1ccc(-c2nc3cc(C)ccc3o2)cc1
- CC50 [4]: 26.7 µM (active)
- EC50 [5]: 0.21 µM (active)
- EC50 [6]: > 50 µM (not active)
- IC50 [7]: 23.5 µM (active)
- IC50 [8]: 4.35 µM (active)
- IC50 [9]: 64.7 µM (active)
- IC50 [10]: 45.2 µM (active)

SMILES: CSc1ccc(CNc2ccc(Cl)cc2)cc1
- AC50 [11]: 56.4 µM (active)
- AC50 [12]: inconclusive

SMILES: Cc1cccc2sc(NC(=O)c3ccc(NS(=O)(=O)c4cccs4)cc3)nc12
- EC50 [16]: 2.22 µM (active)
- EC50 [17]: 3.77 µM (active)
- IC50 [7]: 36.5 µM (active)
- IC50 [8]: 7.27 µM (active)
- IC50 [9]: 8.6 µM (active)
- IC50 [10]: 11.6 µM (active)

SMILES: N#Cc1ccccc1COC(=O)c1ccc2c(c1)OCCO2
- IC50 [7]: 19.9 µM (active)
- IC50 [8]: 8.48 µM (active)
- IC50 [9]: 22.5 µM (active)
- IC50 [10]: 27.5 µM (active)

SMILES: Nc1ccn(C2OC(COC(=O)C34CC5CC(CC(C5)C3)C4)C(O)C2O)c(=O)n1 (centres undefined)
- GI50 [1]: 0.889 µM (active)
- GI50 [2]: 4.46 µM (inactive)
- GI50 [3]: 0.506 µM (active)
- AC50 [18]: 0.652 µM (active)
- AC50 [19]: < 0.26 µM (active)
- AC50 [20]: 36.9 µM (active)

SMILES: c1cc2n(n1)CCN2
- GI50 [1]: 294 µM (inactive)
- GI50 [2]: 1150 µM (inactive)
- GI50 [3]: 361 µM (inactive)
